Reference: US12514859B2, “Pyrazole pyrimidine derivative and uses thereof” (Yissum Research Development Company of the Hebrew …, priority 2015, dated 2026)

What was measured:
IRAK1/4 = settings: 10 μM; cited from earlier work
Wnt/β-catenin = experiment: β-catenin stabilization (Wnt pathway activation) in RKO cells (Western blot); type: cell-based; settings: 16 hours, Western blot
Method: (§1) Primary Screen in RKO cells for compounds having typical CKIα inhibitory activity (β-catenin and p53 stabilization and histone H2AX phosphorylation; see Elyada et al, Nature 2011 Feb. 17; 470(7334):409-13; Pribluda et al, Cancer Cell 2013 Aug. 12; 24(2):242-56). RKO colorectal cells were incubated with 10 μM of each of the compounds for 16 hours at 37° C. Cells were washed with PBS and cell pellets were incubated with ice cold protein lysis buffer containing protease inhibitor cocktail (1/200; Calbiochem) and phosphatase inhibitors (20 mM p-nitrophenyl phosphate (PNPP), 20 mM β-glycerophosphate and 300 nM okadaic acid). Western blot analysis was performed by means of standard techniques. Blots were incubated with antibodies detecting β-catenin (1/2,500; BD Transduction), p53 (DO-1&1801 hybridoma mix; dilution of 1:20 of supernatants from each), CKIα (C-19; 1/1,000; Santa Cruz Biotechnology) and phospho-histoneH2AX (S139; 1/1,000; Millipore). Secondary antibodies were HRP-linked goat anti-mouse, goat anti-rabbit and rabbit anti-goat antibodies (all 1/10,000; Jackson). Blots were developed using ECL (GE Healthcare).
(§2) Active compounds were further analyzed in a dose-response experiment (FIGS. 1A and 1B). Similar to the primary screen, RKO cells were incubated with descending concentrations of each of the active compounds for 16 hours at 37° C. Cell extract isolation and Western Blot analysis were similar to the primary screen.
(§3) Table 1 provides quantified information for compounds of the invention in activation of p53 and DNA damage response (DDR) and β-catenin stabilization as an indicator of Wnt pathway activation. p53 activation was determined according to the degree of protein stabilization in several Western blot assays (Western blot examples are shown in FIGS. 1A and 1B). […] In contrast, A35 started stabilizing p53 at […], with maximal stabilization at […] (FIG. 1A, upper right panel) and thus received an average value of +++ for p53 activation.

AML mice (MLL-AF9) = experiment: MLL-AF9 acute myeloid leukemia (AML) mouse model; type: in vivo
Method: Generation of a mouse model of acute myeloid leukemia (AML) (FIG. 6) and treatment with the CKIα inhibitor A14 (FIGS. 7, 8 and 9) or A51 (FIGS. 11 and 12). To generate the MLL-AF9 Acute myeloid leukemia (AML) model, bone marrow (BM) cells from 10 week old wild type mouse were extracted and enriched for cKit expressing cells (EasySep #18757) and incubated overnight in RPMI supplemented with 15% FCS L-Glutamine, Pen/Strep (Biological Industries, Israel) and stem cell factor (SCF), IL-3, IL-6 and TPO (Peprotech). The culture was infected with MSCV-MLL-AF9-IRES-GFP retrovirus construct containing supernatant medium for 4 hours, then growth medium was added and infected cells were incubated at 37° C. for additional 24 h. The culture was then injected I.V. into sub lethally irradiated (500 rad) mice. Upon detectable steady increase of GFP expressing cells in the mice peripheral blood (checked by FACS analysis) and rise in leukocyte numbers and immature cells (detected by Wright-Giemsa stained blood films), mice were sacrificed and their BM was transferred (1st BMT) to sublethally irradiated WT hosts. Upon emergence of AML disease mice were sacrificed and 50,000 BM cells were transplanted (2nd BMT) into WT host mice. GFP expressing cells were monitored in the peripheral blood and upon detecting >10% GFP^+ in PB (day 11 after BMT) mice were treated with A14 inhibitor (FIG. 7A). A14 was administered by oral gavage once a day at a dose of 20 mg/kg for 3 days followed by 10 mg/kg/day for 6 more days. The inhibitor was dissolved in 1% methyl cellulose with 0.1% Tween 80 and 0.2% Poly-ethylene glycol (Vehicle). Control mice were treated with the vehicle only. Mice were monitored daily for cachexia, lethargy, and ruff coats, and moribund mice were sacrificed. For a single dose experiment (FIG. 11A) A51 was administered by oral gavage at a single dose of 20 mg/kg and mice were sacrificed 16 hours following treatment.
Complete blood counts. Peripheral venous blood was obtained from the mouse facial vein using standard techniques and analyzed using the auto hematology analyzer BC-2800 (Mindray) per manufacturer's instructions.
Single-dose treatment effect of a CKI inhibitor in AML mice and PD-L1 expression. AML mice were prepared by inoculating MLL-AF9 oncogene-transduced bone marrow cells to C57/BL6 mice. MLL-AF9 fusion represents one of a poor prognosis human AML induced by chromosomal translocation. 30 days after leukemia inoculation, the recipient mice have high white blood cells (WBC) counts (×10 higher than a normal mouse), and harbor >95% leukemia blasts in the bone marrow and 50% of the peripheral WBC in these mice are AML blasts. These mice have splenomegaly and their bones are pale and fragile due to the acute leukemia (FIG. 12).

IRAK1 [1] = biological target: T1, IRAK1 (Homo sapiens, UniProt P51617); experiment: Kd measurements for the interaction with IRAK1; type: binding
T1 construct: RKO cells were incubated for 16 hours at 37° C. with the indicated concentrations of compounds; endogenous in cells; host or cells: RKO cells, stimulated with TNFα
T1 sequence (P51617 whole entry): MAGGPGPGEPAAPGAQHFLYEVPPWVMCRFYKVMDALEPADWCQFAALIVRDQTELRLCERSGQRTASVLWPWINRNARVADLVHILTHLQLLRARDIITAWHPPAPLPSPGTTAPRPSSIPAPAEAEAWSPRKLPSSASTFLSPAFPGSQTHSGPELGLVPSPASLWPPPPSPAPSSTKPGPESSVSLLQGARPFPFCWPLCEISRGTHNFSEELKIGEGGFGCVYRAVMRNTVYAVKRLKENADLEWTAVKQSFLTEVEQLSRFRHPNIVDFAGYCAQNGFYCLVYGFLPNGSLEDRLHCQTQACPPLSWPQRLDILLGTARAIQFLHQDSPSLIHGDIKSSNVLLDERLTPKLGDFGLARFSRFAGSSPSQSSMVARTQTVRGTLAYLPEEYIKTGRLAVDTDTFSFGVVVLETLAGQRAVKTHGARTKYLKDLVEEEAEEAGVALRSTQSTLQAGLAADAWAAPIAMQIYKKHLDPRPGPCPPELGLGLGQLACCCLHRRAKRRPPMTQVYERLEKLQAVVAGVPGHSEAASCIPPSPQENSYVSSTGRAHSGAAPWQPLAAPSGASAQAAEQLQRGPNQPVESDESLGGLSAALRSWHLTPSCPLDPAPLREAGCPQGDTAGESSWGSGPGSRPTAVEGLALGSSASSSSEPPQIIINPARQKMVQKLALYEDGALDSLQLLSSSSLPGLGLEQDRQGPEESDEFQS

[2] = tested on: p53, DNA damage response (γH2AX); experiment: p53 and DNA damage response activation in RKO cells (Western blot, primary screen and dose response); type: cell-based; settings: 16 hours, Western blot, average value
Method: as §1, §2, §3

IRAK1 [3] = biological target: T1, IRAK1; experiment: IRAK1 inhibition in RKO cells treated with TNFα (Western blot); type: cell-based
Method: (§4) Cells were harvested and analyzed by Western blot. Blots were incubated with the following antibodies: Phospho-IRAK1 (Thr209), (A1074, AssayBiothechnology; 1/1,000), Phospho-IKKα/β (Ser176/180) (16A6, Cell Signaling; 1/1,000), IKKα (2682, cell signaling; 1/1,1000), IKK β (2370, cell signaling; 1/1,1000), Phospho-c-Jun (Ser 63) (9261, cell signaling; 1/1,1000), p53 (DO-1&1801 hybridoma mix; dilution of 1:20 of supernatants from each), CKIα (C-19; 1/1,000; Santa Cruz Biotechnology) and phospho-histoneH2AX (S139; 1/1,000; Millipore). Secondary antibodies were HRP-linked goat anti-mouse, goat anti-rabbit and rabbit anti-goat antibodies (all 1/10,000; Jackson). Inhibition of Phospho-IRAK1, Phospho-IKKα/β and Phospho-c-Jun indicate IRAK1 inhibition. p53 stabilization and phosphorylation of H2AX (γH2AX), a marker of DNA damage, indicative of CKIα kinase inhibition. CKIα protein levels serves as a loading control.
as §4, with “IRAK1 Inhibition with compounds of the invention. RKO cells were incubated for 16 hours at 37° C. with the indicated concentrations of compounds of the invention A51 (1 μM) and A14 (2 μM) (FIG. 10). At the indicated time points, RKO were treated with TNFα (100 units/ml). Cells” for “Cells”, “IKKβ” for “IKK β”, “Blots were developed using ECL (GE Healthcare). […] Also shown is” for “Inhibition of Phospho-IRAK1, Phospho-IKKα/β and Phospho-c-Jun indicate IRAK1 inhibition.”

[4] = oral single dose 20 mg/Kg, 16 hrs

O=C(Nc1nc2ccccc2n1CCN1CCOCC1)c1cccc([N+](=O)[O-])c1 [Amgen's IRAK1-4 inhibitor]
inhibition of IRAK1/4 in cell lines (IRAK1/4): 70%

Cn1ncc(-c2nc(N[C@H]3CC[C@H](N)CC3)ncc2Cl)c1CC1CC1 [Compound A51, (1R, 4R)—N^1-(5-chloro-4-(5-(cyclopropylmethyl)-1-methyl-1H-pyrazol-4-yl)pyrimidin-2-yl)cyclohexane-1,4-diamine]
β-Catenin activity (Wnt/β-catenin): +++ (+++ indicates maximal β-catenin or p53 stabilization at >2 μM) | leukemic spleen size (in words) (AML mice (MLL-AF9); [4]): shrinking of the leukemic spleen | reduction of proportion of leukemic blasts (GFP+ cells) in the blood (AML mice (MLL-AF9); [4]): > 90% | reduction of proportion of leukemic blasts (GFP+ cells) in the bone marrow (AML mice (MLL-AF9); [4]): 50% | total leukemia cells in the blood (in words) (AML mice (MLL-AF9); [4]): massive reduction | bone colour (in words) (AML mice (MLL-AF9); single dose 20 mg/Kg): Opaque bones turned to normal color | Kd (IRAK1 [1]): 2.9 nM | DDR & p53 activity [2]: ++++ (++++ indicates maximal activation of p53 and DDR at >0.5 μM) | IRAK1 activation and activation of the IRAK1 target IKK (in words) (IRAK1 [3]; RKO cells, Western blot, A51 1 μM, A14 2 μM, 16 hours, TNFα 100 units/ml): inhibition of IRAK1 activation | inhibition at 1 µM (IRAK1 [3]; RKO, read-out: inhibition of phospho-(active) IRAK1): 100%
